Assay [1] deals with HTLV-1. Conditions: cited from earlier work.
For the next assay, the system named is HIV-1. The note with it: HIV-1 infection model; supplementary ref 18; read-out: HIV-1 EC50 ± stdev; cited from earlier work.
The test system of another assay is STLV-1 intasome. The experiment in a line: EMSA of stability (retention) of assembled STLV-1 intasome. The note with it: three hours of incubation with the drug. As to the method:
The donor DNA (vDNA) that mimics the 3′-processed LTR of STLV-1 DNA was preassembled by annealing Atto-680-labelled MarB43_U5_S30UP and MarB43_U5_S30B oligonucleotides (Supplementary Table 4) in 100 mM Tris pH 7.4, 400 mM NaCl. In all, 16 μg of STLV-1 IN or its mutants were co-incubated with 38.4 μg of LEDGF/ΔIBD-B56γ at 4 °C for 30 min to allow binding. Samples were then supplemented with 0.5 μL 20 μM Atto680-labelled vDNA, and sufficiently diluted to give a final NaCl concentration of 60 mM. This was immediately placed in a 37 °C heating block for 10 min. The sample was then returned to room temperature (RT) and any precipitate was resolubilised by the addition of NaCl to a final concentration of 1.2 M. After equilibration of the samples at RT for 10 min, the samples were either immediately supplemented with 10 μg/mL heparin or, where stated, were incubated further or additional reagents/INSTIs were added, as described. Samples, supplemented with 10 μg/mL heparin, devoid of loading dye were carefully loaded onto a 3% low melting point agarose gel containing 10 μg/mL heparin and electrophoresed, avoiding overheating. Densitometry analysis was carried out in ImageJ v1.50i. Measurements from at least three independent experiments were taken. Standard deviations and p values were calculated in Prism 9.
Supplementary Figure 10 | STLV-1 IN A219E binds more B56g and stabilises the deltaretroviral intasome. a, Pulldown of LEDGF/ΔIBD-B56γ by wild type His6-STLV-1 IN and its mutants. Mutations introduced in the IN:B56 binding interface can strengthen the interaction. b, A219E-mutated STLV-1 IN increases the amount of intasome assembled in vitro in an EMSA assay, compared to wild type IN. Values are normalised to wild type STLV-1 IN. c, EMSA study of the effect of addition of BIC on the stability (retention) of the assembled STLV-1 intasome after three hours of incubation with the drug. Values shown represent percentage of intasome retained as compared to intasome assayed by EMSA straight after assembly. Averages and standard deviations are shown for two independent biological replicates. Primary data from pull-down assays and EMSA is also included below each panel. The red arrow indicates the intasome band. INSTI, integrase strand transfer inhibitor. Source data are provided as a Source Data File.
(1 picture or pasted object on this page, not shown here)

Assay [2] concerns HTLV-1. The experiment in a line: MT-2-Jurkat cell-to-cell HTLV-1 infection, proviral load by qPCR. Format: cell-based. Conditions: HTLV-1 infection of Jurkat T cells. As to the method: Six of the most promising compounds were selected for assessment of their efficacy in inhibiting HTLV-1 viral infection. To this end, we employed an MT-2-Jurkat co-culture relying on cell-to-cell-based HTLV-1 transmission, which we successfully used in a previous study. In this assay format, the infection of Jurkat cells is measured via real-time quantitative PCR (qPCR) determination of the proviral load (PVL). […] A block in the integration reaction was confirmed by Alu-qPCR experiments (Supplementary Fig. 6). […] We suspect this is owing to a more efficient uptake of BIC than RAL by Jurkat T cells.
MT-2 and E6.1 Jurkat T-cell lines (ATCC) were used for the experiments. The cells were cultured at 37 °C with 5% CO2 and maintained in Roswell Park Memorial Institute (RPMI) media supplemented with 10% fetal bovine serum (FBS), 100 U penicillin, 100 μg/mL streptomycin and 0.25 μg/mL fungizone.
The HTLV-1 cell-to-cell infection was performed as previously described; Jurkat T cells were counted and diluted in complete RPMI to a final concentration of 0.25 × 10^6 cells/ml and pre-treated with INSTI drugs (final concentration ranging from 0.2 pM to 2 μM) or DMSO as a control for 24 h. MT-2 cells were resuspended in RPMI at a concentration of 2 × 10^6 cells/ml and subjected to a nonlethal γ-radiation dose of 400 Gy. Cells were resuspended at a concentration of 2 × 10^6 cells/ml in serum-free RPMI supplemented with the corresponding INSTI drug. Co-culture of 0.5 × 10^6 for each cell line was carried out for 16 h, after which cells were washed in PBS and resuspended in 1 ml of depletion buffer (PBS, 0.1% FBS and 2 mM EGTA). MT-2 cells were depleted from the culture by means of anti-CD25 magnetic beads (DynabeadsTM CD25, Thermo Fisher). Depletion efficiency was confirmed via flow cytometry as described previously. Jurkat cells were cultured for 2 weeks in complete RPMI supplemented with the drugs and genomic DNA was extracted (DNeasy kit, Qiagen) and stored at −20 °C for subsequent analysis. All the experiments were done in triplicate.
The PVL was measured as previously described[9],[53],[54]. Jurkat genomic DNA was quantified and diluted to a concentration of 5 ng/μL. Real-time qPCR analysis were conducted on 20 ng of gDNA to measure the level of HTLV-1 tax and gapdh genes (Supplementary Table 5). For the standard curve, the gDNA from an HTLV-1 naturally infected T-cell clone (clone 11.50, courtesy of professor Charles Bangham), which has one copy of tax and two of gapdh, was used. The integrated provirus copy number was calculated as follows: (tax copy numbers)/(2×gapdh copy number)[53], and normalised to the DMSO-treated control which was set to 100%. The PVL data were fitted to a dose–response curve in Prism 7 and the EC50 was calculated. Alu-PCR was performed as previously described in ref. [55]. In brief, the first PCR reaction was done with Phusion polymerase starting from 80 ng of gDNA using the ALU-specific primers (Alu-F/Gag-R). The nested PCR was run diluting the amplificated product 1:50. The reaction was done as a qPCR using Gag-specific primers (Gag-R/Gag-F) and the Luna SYBR dye reaction mix (New England Biolabs). The integrated provirus copy numbers were normalised to GAPDH and Jurkat cells treated with DMSO and infected with HTLV-1 were set to 100%. Experiments were done in triplicate.
A general note: In qPCR the cycle at which signal appears reflects the starting amount.

In a further assay the target is T1, recombinant HTLV-1 IN (Human T-cell leukemia virus 1, UniProt P03362).
T1 construct: made in house
Conditions: previously obtained values, read-out: HTLV-1 IN strand transfer IC50, cited from earlier work.

Assay [3] addresses STLV-1 IN(A219E) as assembled into the intasome for cryo-EM (simian T-cell lymphotropic virus type 1 (STLV-1), isolate MarB43). The experiment in a line: cryo-EM structure.
For assay [4], the target named is 6xHis-tagged STLV-1 MarB43 integrase A219E (simian T-cell lymphotropic virus type 1 (STLV-1), isolate MarB43). The experiment in a line: pull-down.

Where two headings read alike, the source gives them in different places.

By EC50 is commonly meant the midpoint of the concentration-response curve. In general, IC50 refers to the concentration that inhibits the measured activity by half. For `O=C(NCc1c(F)cc(F)cc1F)c1cn2c(c(O)c1=O)C(=O)N1[C@H]3CC[C@H](C3)O[C@@H]1C2` [Bictegravir], the EC50 with HTLV-1 [1] (MT-2-Jurkat cell-to-cell infection, read-out: HTLV-1 EC50) was 0.3 ± 0.173 nM; in the assay with HTLV-1 [1] (Replicate 1, previously reported values, read-out: HTLV-1 infection EC50) it was 0.54 nM; with HTLV-1 [1] (Replicate 2, previously reported values, read-out: HTLV-1 infection EC50), 0.44 nM; with HIV-1 it was 1.6 ± 0.4 nM. Moreover, the “percentage of intasome retained” value in the assay on STLV-1 intasome (1 uM, Replicate 1) came to 54.7791%; in the assay with STLV-1 intasome (1 uM, Replicate 2), 56.5068%; in the assay on STLV-1 intasome (50 uM, Replicate 1), 73.5691%; with STLV-1 intasome (50 uM, Replicate 2) it was 117.429%; in the assay on STLV-1 intasome (50 uM, Replicate 3) it was 83.837%. Besides, in the assay on HTLV-1 [2], the “improvement in EC50 compared with RAL” value worked out at 20 fold. Besides, the concentration for half-maximal inhibition (IC50) on recombinant HTLV-1 IN (Replicate 1) was 163 nM; at recombinant HTLV-1 IN (Replicate 2), 136 nM; at recombinant HTLV-1 IN (Replicate 3), 212 nM.
In general, stoichiometry N refers to the number of molecules, sites or subunits per partner or assembly. For “STLV-1 IN(A219E) as assembled into the intasome for cryo-EM (enzyme)”, the stoichiometry N in assay [3] came out at 4.
As for “LEDGF/ΔIBD-B56γ (from UniProt Q13362 11-380)”, in assay [4], the fold B56γ recovered against WT IN amounted to 2 fold.

Source of the values: paper PMC8370991, “Structural basis for the inhibition of HTLV-1 integration inferred from cryo-EM deltaretroviral intasome structures” (Nature Communications, 2021).
